# Measurements reported in PubChem BioAssay (NCI).
#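 Cultured in 96-well plates, cells were exposed to test compound for 48 hours across five concentrations. TGI marks complete inhibition of growth.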
# Legend:
# Assay in all cases: NCI-60 cell line screen, 48 h
# ACHN renal = test system: ACHN renal
# COLO 205 colon = test system: COLO 205 colon
# DU-145 prostate = test system: DU-145 prostate
# HCT-15 colon = test system: HCT-15 colon
# HL-60(TB) leukemia = test system: HL-60(TB) leukemia
# LOX IMVI melanoma = test system: LOX IMVI melanoma
# MALME-3M melanoma = test system: MALME-3M melanoma
# MCF7 breast = test system: MCF7 breast
# MDA-N = test system: MDA-N
# MOLT-4 leukemia = test system: MOLT-4 leukemia
# NCI-H522 lung = test system: NCI-H522 lung
# NCI/ADR-RES ovarian = test system: NCI/ADR-RES ovarian
# PC-3 prostate = test system: PC-3 prostate
# SF-295 CNS = test system: SF-295 CNS
# SK-MEL-2 melanoma = test system: SK-MEL-2 melanoma
# SK-MEL-5 melanoma = test system: SK-MEL-5 melanoma
# SNB-19 CNS = test system: SNB-19 CNS
# UO-31 renal = test system: UO-31 renal
Structure (SMILES),TGI (ACHN renal),TGI (COLO 205 colon),TGI (DU-145 prostate),TGI (HCT-15 colon),TGI (HL-60(TB) leukemia),TGI (LOX IMVI melanoma),TGI (MALME-3M melanoma),TGI (MCF7 breast),TGI (MDA-N),TGI (MOLT-4 leukemia),TGI (NCI-H522 lung),TGI (NCI/ADR-RES ovarian),TGI (PC-3 prostate),TGI (SF-295 CNS),TGI (SK-MEL-2 melanoma),TGI (SK-MEL-5 melanoma),TGI (SNB-19 CNS),TGI (UO-31 renal)
NCCCN1CCN(CC(=O)O)CCN(CCCN)CCN(CC(=O)O)CC1,> 100 µM,> 100 µM,> 100 µM,> 100 µM,> 100 µM,> 100 µM,> 100 µM,> 100 µM,> 100 µM,> 100 µM,> 84.2 µM,> 100 µM,> 100 µM,> 100 µM,> 76.1 µM,21.3 µM,> 100 µM,> 100 µM
O=C(CCCl)NNC1=NCCN1,> 100 µM,> 100 µM,> 100 µM,> 100 µM,> 100 µM,> 100 µM,> 100 µM,> 100 µM,> 100 µM,> 100 µM,> 100 µM,> 100 µM,> 100 µM,> 100 µM,> 100 µM,> 100 µM,> 100 µM,> 100 µM
O=C1C=C(NCCc2cc(Br)c(O)c(Br)c2)C(=O)c2ncccc21,22 µM,3.25 µM,2.99 µM,18.2 µM,16.1 µM,4.97 µM,2.49 µM,5.29 µM,1.23 µM,21.9 µM,6.1 µM,27.5 µM,27.1 µM,2.79 µM,4.1 µM,2.57 µM,8.77 µM,20.2 µM
COc1cc([C@@H]2c3[nH]c4ccccc4c3C(Nc3ccc([N+](=O)[O-])cc3)[C@H]3COC(=O)N23)cc(OC)c1O (stereo partly drawn),0.659 µM,2.86 µM,0.744 µM,29.2 µM,0.048 µM,0.297 µM,1.31 µM,0.624 µM,2.81 µM,0.289 µM,1.97 µM,> 100 µM,7.88 µM,1.02 µM,> 72.7 µM,0.663 µM,0.698 µM,3.22 µM
CN(C)c1nc(-c2ccccc2)c(C(=O)c2c[nH]c3ccccc23)s1,> 100 µM,> 100 µM,> 100 µM,> 100 µM,16.5 µM,> 100 µM,> 100 µM,> 100 µM,20.2 µM,> 82.6 µM,10.4 µM,> 100 µM,> 100 µM,> 100 µM,> 100 µM,> 100 µM,> 100 µM,> 100 µM
O=c1[nH]nc(Cc2ccc(Cl)cc2)n1/N=C\CC/C=N\n1c(Cc2ccc(Cl)cc2)n[nH]c1=O,> 100 µM,> 100 µM,> 100 µM,> 100 µM,> 100 µM,> 100 µM,> 84.7 µM,> 100 µM,> 100 µM,> 96.5 µM,> 100 µM,> 66.3 µM,> 100 µM,> 78.1 µM,> 69.7 µM,> 100 µM,> 92.8 µM,> 100 µM
